Read-outs that look alike come from different tables or passages of the source.
Legend:
[1] = molecular target: T1, OX1R (Homo sapiens, UniProt O43613); experiment: OX1R potency as described in WO2016/034882; conditions: for IC50: read-out: OX1R IC50 (corresponds to pIC50) (converted)
T1 sequence (O43613 1-425): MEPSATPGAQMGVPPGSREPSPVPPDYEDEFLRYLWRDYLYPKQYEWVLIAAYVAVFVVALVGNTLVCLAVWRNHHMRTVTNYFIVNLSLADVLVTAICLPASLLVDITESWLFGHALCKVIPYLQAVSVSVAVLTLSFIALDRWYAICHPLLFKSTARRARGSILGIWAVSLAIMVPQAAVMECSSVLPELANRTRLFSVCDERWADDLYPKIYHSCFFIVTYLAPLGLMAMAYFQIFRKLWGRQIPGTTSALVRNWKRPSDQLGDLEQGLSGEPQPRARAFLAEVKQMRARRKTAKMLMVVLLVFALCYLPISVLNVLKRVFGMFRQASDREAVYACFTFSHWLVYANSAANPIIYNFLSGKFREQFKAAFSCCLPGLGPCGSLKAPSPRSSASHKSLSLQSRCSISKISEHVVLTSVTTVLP

[2] = molecular target: T2, OX2R (Homo sapiens, UniProt O43614); experiment: OX2R potency as described in WO2016/034882; conditions: read-out: OX2R IC50 (corresponds to pIC50) (converted)
T2 sequence (O43614 1-444): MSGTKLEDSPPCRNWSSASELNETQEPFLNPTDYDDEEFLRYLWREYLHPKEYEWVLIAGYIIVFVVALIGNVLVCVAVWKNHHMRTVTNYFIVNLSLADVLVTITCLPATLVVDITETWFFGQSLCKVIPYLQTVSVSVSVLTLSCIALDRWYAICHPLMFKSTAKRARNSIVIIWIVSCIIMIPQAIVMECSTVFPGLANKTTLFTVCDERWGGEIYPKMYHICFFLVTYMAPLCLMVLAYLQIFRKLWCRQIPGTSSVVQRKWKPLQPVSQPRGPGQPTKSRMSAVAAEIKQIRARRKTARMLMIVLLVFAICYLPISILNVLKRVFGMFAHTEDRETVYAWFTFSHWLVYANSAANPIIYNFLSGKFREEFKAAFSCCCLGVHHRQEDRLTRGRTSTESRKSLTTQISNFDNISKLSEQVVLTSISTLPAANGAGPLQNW

[3] = molecular target: T2, OX2R; conditions: cited from earlier work
[4] = molecular target: T3, human Orexin 1 receptor (Homo sapiens, UniProt O43613); experiment: Assay A: OX1R IP1 (in vitro OX1R potency); format: cell-based; conditions: for Kb: Table 3
T3 construct: stably expressing the full-length human Orexin 1 receptor; expressed in transfected cells; host or cells: CHO-K1 (CHO-K1/hOX1), co-expressing aequorin
T3 sequence (O43613 1-425): T1 sequence (O43613 1-425)

[5] = molecular target: T4, human orexin 2 receptor (Homo sapiens, UniProt O43614); experiment: Assay B: OX2R IP1 (in vitro OX2R potency); format: cell-based; conditions: Table 3; 0.5 nM Orexin A concentration
T4 construct: stably expressing the full-length human orexin 2 receptor; expressed in transfected cells; host or cells: CHO-K1 (CHO-K1/hOX2), co-expressing aequorin
T4 sequence (O43614 1-444): T2 sequence (O43614 1-444)
Source text: Activation of the orexin receptors expressed in cell lines results in an increase in intracellular IP3 concentration. IP1, a downstream metabolite of IP3, accumulates in cells following receptor activation and is stable in the presence of LiCl. Using Homogeneous Time-Resolved Fluorescence technology with Lumi4-Tb cryptate (commercially available from Cisbio Bioassay.) and a suitable fluorescence plate reader. This functional response is detectable and quantifiable as described in Trinquet et al. Anal. […] Curr. Chem. Genomics 2009, 3, 22-32. This technique is used to characterize pharmacological modification of the orexin receptors. B. In Vitro Testing of OX2R Potency: OX2R IP1 IP1 measurements are performed in CHO-K1 cells stably expressing the full-length human orexin 2 receptor and the aequorin photoprotein. Cells are cultivated in Ham's nutrient mixture F12 medium with 10% fetal calf serum, in a 37° C., 95% humidity and 5% CO2 incubator. The CHO-K1/hOX2 cell mass is expanded to larger cell numbers. The cells are obtained as frozen cells in cryo-vials and stored until use at -150° C. The viability of the cells after thawing is >90%. In preparation for the assay, 24 hours before the assay, the cells are thawed at 37° C. and immediately diluted with cell culture medium. After centrifugation, the cell pellet is resuspended in medium and then distributed into the assay plates with a density of 5000 cells/25 μL per well. The plates are incubated for one hour at room temperature to reduce edge effects before they are incubated for 24 hours at 37° C./5% CO2. […] On the day of the assay, cells in the plate are washed twice with 60 μL assay buffer (20 μL buffer remained in the wells after washing), followed by adding 5 μL per well of compounds diluted in assay buffer. […] The assay plate is incubated for 60 minutes at 37° C. Then 5 μL per well of Anti-IP1-Cryptate Tb solution and 5 μL per well of IP1-d2 dilution are added to all well of the plate and the plate is incubated for a further 60 minutes light protected at room temperature. […] The ratio between the emission at 665 nm and 615 is calculated by the reader. […] AssayExplorer (Accelrys). In order to establish an agonist concentration independent parameter, Kb values are calculated using the following equation: […] Sci. 1993, 14(4), 110-112).

[6] = Assay C: Human MST t1/2 (stability in human liver microsomes); format: in vitro ADME; conditions: for half-life: human liver microsomes

Row | Structure (SMILES) | OX2R Kb/OX1R Kb [4] | Kb ([4]; Orexin A concentration 50 nM) [nM] | Kb ([4]; Orexin A concentration 0.5 nM) [nM] | Kb [5] [nM] | half-life [6] [min] | further results
1 | CC[C@@H](CNc1ncc(C(F)(F)F)cn1)N(C)C(=O)c1nc(C)ccc1-n1nccn1 [Ex 46 in WO2016/ 034882] |  |  |  |  |  | OX2R IC50/OX1R IC50 ([1]; Table 1 of WO2016/034882): 390; OX2R IC50/OX1R IC50 ([1]; Table 2 of WO2016/034882): > 312; IC50 ([1]; Table 2 of WO2016/034882): 32 nM; OX2R IC50/OX1R IC50 ([1]; Table 3 of WO2016/034882): 3200; IC50 ([1]; Table 3 of WO2016/034882): 3.2 nM; IC50 ([2]; Table 1 of WO2016/034882): 7800 nM; IC50 ([2]; Table 3 of WO2016/034882): ≥ 10000 nM; OX2R pIC50 ([3]; Table 2 of WO2016/034882): < 5.0; OX2R pIC50 ([3]; Table 3 of WO2016/034882): < 5.0
2 | CC[C@@H](CNc1cnc(C(F)(F)F)cn1)N(CC)C(=O)c1nc(C)ccc1-n1nccn1 [Ex 70 in WO2016/ 034882] | 319 | 0.135 |  |  |  | IC50 ([1]; Table 3 of WO2016/034882): 1.6 nM; IC50 ([2]; Table 3 of WO2016/034882): > 5000 nM
3 | CC[C@@H](CNc1ncc(C(F)(F)F)cn1)N(CC)C(=O)c1nc(C)ccc1-n1nccn1 [Ex 73 in WO2016/ 034882] |  |  |  |  |  | OX2R pIC50 ([3]; Table 3 of WO2016/034882): < 6.0
4 | CCN(C(=O)c1cnccc1-n1nccn1)[C@@H](C)COc1ccc(Cl)cn1 [Example 48] | 147 |  | 2.6 | 381 | 33 | 
5 | CCN(C(=O)c1nccc(C(F)(F)F)c1-c1ccn(C)n1)[C@@H](C)COc1ccc(C(F)(F)F)cn1 [Example 50] | 236 | 0.11 |  | 26 | 23 | 
6 | CCN(C(=O)c1cccnc1-n1nccn1)[C@@H](C)COc1ccc(Cl)cn1 [Example 51] | 138 |  | 8.3 | 1140 | > 130 | 
7 | CCN(C(=O)c1nc(C)ccc1-c1ncccn1)[C@@H](C)COc1cnc(C(F)(F)F)cn1 [Example 53] | 105 |  | 3.2 | 337 | > 130 | stability in human liver microsomes (in words) ([6]; compared with closest prior art compounds in WO2016/034882): markedly improved stability in human liver microsomes
8 | CCN(C(=O)c1cc(OC)cnc1-n1nccn1)[C@@H](C)COc1ncc(C(F)(F)F)cc1F [Example 54] | 649 |  | 0.89 | 578 | > 130 | 
9 | CCN(C(=O)c1cc(OC)cnc1-n1nccn1)[C@@H](C)COc1ccc(C(F)(F)F)cn1 [Example 56] |  | 0.49 | 0.5 | 260 | > 130 | 
10 | CCN(C(=O)c1ncccc1-n1nccn1)[C@@H](C)COc1ncc(C(F)(F)F)cc1F [Example 57] | 233 |  | 1.8 | 419 | 56 | 
11 | CCN(C(=O)c1c(F)ccnc1-c1ccn(C)n1)[C@@H](C)COc1ccc(C(F)(F)F)cn1 [Example 58] | 93 |  | 3.5 | 327 | 41 | 
12 | CCN(C(=O)c1cc(F)cnc1-c1nnc(C)o1)[C@@H](C)COc1ccc(C(F)(F)F)cn1 [Example 59] | 214 |  | 31 | 6640 | > 130 | 
13 | CCN(C(=O)c1ccc(C)nc1-n1nccn1)[C@@H](C)COc1ncc(C(F)(F)F)cc1F [Example 60] |  | 0.66 | 0.67 | 882 | > 130 | 
14 | CCN(C(=O)c1cccnc1-n1nccn1)[C@@H](C)COc1ccc(C(F)(F)F)cn1 [Example 61] | 294 |  | 2.31 | 678 | > 130 | 
15 | CCN(C(=O)c1ncc(C)cc1-n1cccn1)[C@@H](C)COc1ccc(C(F)(F)F)cn1 [Example 64] | 688 | 0.4 |  | 275 | 20 | 
16 | CCN(C(=O)c1cnccc1-n1cccn1)[C@@H](C)COc1ccc(C(F)(F)F)cn1 [Example 69] | 139 |  | 2.2 | 305 | 13 | 
17 | CCN(C(=O)c1cc(F)cnc1-c1ncccn1)[C@@H](C)COc1ccc(C(F)(F)F)cn1 [Example 70] | 691 |  | 1.5 | 1040 | > 130 | 
18 | CCN(C(=O)c1ncccc1-n1nccn1)[C@@H](C)COc1ccc(Cl)cn1 [Example 71] | 113 |  | 3 | 339 | 63 | 
19 | CCN(C(=O)c1cc(Cl)cnc1-n1nccn1)[C@@H](C)COc1ccc(C(F)(F)F)cn1 [Example 72] |  | 0.24 | 0.37 | 250 | > 130 | 

Source: patent US10738031B2, “N-[(heteroaryloxy)propanyl]heteroaryl carboxamides as antagonists of orexin subtype 1 receptor activity” (Boehringer Ingelheim International GmbH, priority 2016, dated 2020)
